From US20110190142A1, “DETERMINATION OF RENIN-PRORENIN RECEPTOR ACTIVITY” (Charite- Universitatsmedizin Berlin, priority 2006, published 2011)

Experiments:
Format in all cases: cell-based, human
[1] = test system: renin/prorenin receptor (RER); assay: PI3K-p85α mRNA by quantitative real-time PCR after renin/prorenin stimulation of HEK293 cells; details: HEK293 cells, regardless of PLZF expression level
Protocol: (§1) HEK293 cells were seeded in 24-well plates and transfected with either 100 ng of pCEP4-PLZF-myc expression vector, 50 ng of indicated pGL3-basic construct and 10 ng of phRL-null plasmid (for luciferase assay), or 100 ng of pCEP4-PLZF-myc alone (for PCR experiments) per well as described above. siRNA transfection, renin stimulation and determination of reporter activity were performed as described above, except for an exceeded renin stimulation period of 3 hours.
RNA isolation and cDNA synthesis were performed as described above. qPCR was performed applying a SYBR Green I reaction mix and run on a Stratagene Mx3000P (Stratagene, La Jolla, Calif., USA) using the following primers: […]
Data represents the mean expression level±standard deviation (standardized to 18S rRNA expression) calculated according to the ddCT method of at least three independent measurements. Equality of PCR efficiencies has been verified applying the program LinRegPCR (Ramakers et al. 2003) and ANOVA testing.
(§2) For all cell culture studies immortalized human epithelial kidney cells (HEK293 cells) were used. […] Additional inhibition with 1 μM aliskiren was performed as indicated. 1 hour after pre-treatment with losartan±aliskiren cells were stimulated with either 5 nM renin, 5 nM prorenin, or the respective vehicle. Cells were harvested for mRNA expression analysis or determination of viable cell number and apoptosis after 3 or 24 hours, respectively. These experimental procedures have been described in detail previously (Schefe et al., 2006). All experiments were performed in independent triplicates.

[2] = test system: renin/prorenin receptor (RER); assay: PI3K-p85α promoter luciferase reporter assay under renin stimulation; details: PLZF-overexpressing HEK293 cells
Protocol: The indicated cell types were seeded on day 1 in 12-well plates. 100 ng of indicated pGL3-basic constructs (encoding firefly luciferase) and 20 ng of phRL-null plasmid (encoding humanized Renilla luciferase for standardization of promoter activity; Promega) per well were transfected on day 2 at 60-80% confluency using GeneJuice (Merck Biosciences, Bad Soden, Germany) according to the manufacturer's protocol. Cells were harvested 48 hours after transfection using Passive Lysis Buffer (Promega). Reporter activities were measured in a Pharmingen Monolight 3010 luminometer (BD Biosciences, Erembodegem, Belgium) using the Dual-Luciferase Reporter Assay System (Promega). Promoter activity is expressed as relative luciferase activity (RLA) (Funke-Kaiser et al., 2003a). RLA data represent the mean±standard deviation of at least three single, parallel transfection experiments.
as §1

RER protein = assay: Down-regulation of RER protein by siRNA (Western blot, densitometry); details: Western blot of total cell lysate
Protocol: For analysis of subcellular localization of RER, 9 μg (membrane) and 12 μg (cytosolic) protein were loaded per lane, separated in a 10% SDS-PAGE and transferred to a nitrocellulose membrane. Western blot analysis was performed with an antibody against human RER (corresponding ATP6AP2; goat polyclonal, ab5959, Abcam, Cambridge, UK) at a dilution of 0.5 μg/ml. Horseradish peroxidase-conjugated anti-goat antibody (rabbit polyclonal; 1:2,500; DAKO, Hamburg, Germany) was used as secondary antibody.
For PLZF translocation experiments HEK293 cells were seeded on day 1 in 6-well plates. 250 ng of pCEP4-PLZF-myc expression vector per well were transfected on day 2 at 40-60% confluency using GeneJuice (Merck Biosciences, Bad Soden, Germany) according to the manufacturer's protocol. On day 3 the cells were transfected with 50 nM siRNA against the RER [5′-GCUCCGUAAUCGCCUGUUU (sense strand), (SEQ ID No. 38); 5′-AAACAGGCGAUUACGGAGC (antisense strand), (SEQ ID No. 39)] or GFP control siRNA (Eurogentec, Seraing, Belgium) using jetSI-ENDO (Eurogentec) following the standard procedure. […] Chemoluminescence was detected with ECL (Amersham, München, Germany), and subsequent exposition to Hyperfilm (Amersham).

[3] = test system: renin/prorenin receptor (RER); assay: Renin- and prorenin-mediated RER activation (RER-PLZF pathway) in HEK293 cells with aliskiren or siRNA
Protocol: as §2

RER mRNA = assay: Down-regulation of RER mRNA by siRNA (real-time PCR); details: HEK293 cells
Protocol: For PLZF translocation experiments HEK293 cells were seeded on day 1 in 6-well plates. 250 ng of pCEP4-PLZF-myc expression vector per well were transfected on day 2 at 40-60% confluency using GeneJuice (Merck Biosciences, Bad Soden, Germany) according to the manufacturer's protocol. On day 3 the cells were transfected with 50 nM siRNA against the RER [5′-GCUCCGUAAUCGCCUGUUU (sense strand), (SEQ ID No. 38); 5′-AAACAGGCGAUUACGGAGC (antisense strand), (SEQ ID No. 39)] or GFP control siRNA (Eurogentec, Seraing, Belgium) using jetSI-ENDO (Eurogentec) following the standard procedure. On day 5, after 24 hours of starving in serum-free medium, cells were stimulated with 10 nM human recombinant renin (mammalian expression; kind gift from Dominik N. Müller, MDC Berlin) or vehicle (0.1% DMSO in PBS) for 2 hours. Western blot was performed with anti-c-myc antibody (mouse monoclonal, 9B11; 1:2,000; Cell Signalling) and horseradish peroxidase-conjugated anti-mouse antibody (rabbit polyclonal; 1:2,500; DAKO). Chemoluminescence was detected with ECL (Amersham, München, Germany), and subsequent exposition to Hyperfilm (Amersham). […]

| Compound | influence on renin induction of PI3K-p85α mRNA [1] | influence on renin-induced increase in PI3K-p85α promoter activity [2] | RER protein reduced to (densitometric measurement, compared to control) (RER protein) | influence on transcriptional and cellular effects of prorenin stimulation ([3]; siRNA 24 hours before prorenin) | RER mRNA repressed to (RER mRNA; 50 nM siRNA) | average reduction of RER mRNA (RER mRNA; siRNA transfected 24 hours before stimulation) | influence on the effects of renin and prorenin (RER and PI3K-p85α transcription, proliferation, apoptosis) ([3]; pre-treatment with 1 μM aliskiren) |
| --- | --- | --- | --- | --- | --- | --- | --- |
| siRNA against the RER: siRNA 5′-GCUCCGUAAUCGCCUGUUU (sense), 5′-AAACAGGCGAUUACGGAGC (antisense), SEQ ID No. 38/39 (listed as RNA, chemistry not given here; listed as Homo sapiens) | abolished this induction | abolished | less than 10% | completely abolished | 29.8±5.2% | 81.1±4.5% | – |
| COCCCOc1cc(C[C@@H](C[C@H](N)[C@@H](O)C[C@H](C(=O)NCC(C)(C)C(N)=O)C(C)C)C(C)C)ccc1OC [aliskiren] | – | – | – | – | – | – | not affected |
